# Measured values: ChEMBL document CHEMBL1201862, “PubChem BioAssay data set” (2004)
#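 In this assay, cells in 96-well plates receive the compound at five concentrations for 48 hours. Endpoints are linearly interpolated between the surrounding concentrations. The concentration for 50% growth inhibition is given as GI50.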 Active and inactive are the calls of the source. Cut-off read from the data, not from the text of the source: active = GI50 up to about 1.1 µM and inactive = higher.
# What was measured:
# Assay in all cases: growth of human tumour cells (NCI), 48 h
# 786-0 = test system: 786-0
# A498 = test system: A498
# A549 = test system: A549
# CAKI-1 = test system: CAKI-1
# CCRF-CEM = test system: CCRF-CEM
# COLO 205 = test system: COLO 205
# DLD-1 = test system: DLD-1
# DMS-114 = test system: DMS-114
# DMS-273 = test system: DMS-273
# EKVX = test system: EKVX
# HCC 2998 = test system: HCC 2998
# HCT-116 = test system: HCT-116
# HL-60 = test system: HL-60
# HOP-62 = test system: HOP-62
# HOP-92 = test system: HOP-92
# HT-29 = test system: HT-29
# IGROV-1 = test system: IGROV-1
# K562 = test system: K562
# KM12 = test system: KM12
# LOX IMVI = test system: LOX IMVI
# LXFL 529 = test system: LXFL 529
# M14 = test system: M14
# M19-MEL = test system: M19-MEL
# MOLT-4 = test system: MOLT-4
# Malme-3M = test system: Malme-3M
# NCI-H226 = test system: NCI-H226
# NCI-H23 = test system: NCI-H23
# NCI-H522 = test system: NCI-H522
# OVCAR-3 = test system: OVCAR-3
# OVCAR-4 = test system: OVCAR-4
# OVCAR-8 = test system: OVCAR-8
# RPMI-8226 = test system: RPMI-8226
# SF-268 = test system: SF-268
# SF-295 = test system: SF-295
# SF-539 = test system: SF-539
# SK-MEL-28 = test system: SK-MEL-28
# SK-MEL-2 = test system: SK-MEL-2
# SK-MEL-5 = test system: SK-MEL-5
# SK-OV-3 = test system: SK-OV-3
# SN12C = test system: SN12C
# SNB-19 = test system: SNB-19
# SNB-75 = test system: SNB-75
# SNB-78 = test system: SNB-78
# SR = test system: SR
# SW-620 = test system: SW-620
# TK-10 = test system: TK-10
# UACC-257 = test system: UACC-257
# UACC-62 = test system: UACC-62
# UO-31 = test system: UO-31
# XF498 = test system: XF498
# ACHN = test system: ACHN
# HCT-15 = test system: HCT-15
# KM-20L2 = test system: KM-20L2
# NCI-H460 = test system: NCI-H460
# OVCAR-5 = test system: OVCAR-5
# RXF 393 = test system: RXF 393
# U-251 = test system: U-251
smiles,measurement,setting,value
O=S1(=O)OCCOS(=O)(=O)C1(I)I,GI50,786-0,20100 nM (inactive)
same,GI50,A498,16700 nM (inactive)
same,GI50,A549,26200 nM (inactive)
same,GI50,CAKI-1,17300 nM (inactive)
same,GI50,CCRF-CEM,10900 nM (inactive)
same,GI50,COLO 205,16900 nM (inactive)
same,GI50,DLD-1,16900 nM (inactive)
same,GI50,DMS-114,18000 nM (inactive)
same,GI50,DMS-273,20600 nM (inactive)
same,GI50,EKVX,27500 nM (inactive)
same,GI50,HCC 2998,20800 nM (inactive)
same,GI50,HCT-116,16300 nM (inactive)
same,GI50,HL-60,21100 nM (inactive)
same,GI50,HOP-62,19600 nM (inactive)
same,GI50,HOP-92,13700 nM (inactive)
same,GI50,HT-29,24800 nM (inactive)
same,GI50,IGROV-1,25300 nM (inactive)
same,GI50,K562,29500 nM (inactive)
same,GI50,KM12,18900 nM (inactive)
same,GI50,LOX IMVI,16200 nM (inactive)
same,GI50,LXFL 529,11000 nM (inactive)
same,GI50,M14,20000 nM (inactive)
same,GI50,M19-MEL,17700 nM (inactive)
same,GI50,MOLT-4,15900 nM (inactive)
same,GI50,Malme-3M,20400 nM (inactive)
same,GI50,NCI-H226,15300 nM (inactive)
same,GI50,NCI-H23,11100 nM (inactive)
same,GI50,NCI-H522,18700 nM (inactive)
same,GI50,OVCAR-3,24000 nM (inactive)
same,GI50,OVCAR-4,19700 nM (inactive)
same,GI50,OVCAR-8,20700 nM (inactive)
same,GI50,RPMI-8226,9120 nM (inactive)
same,GI50,SF-268,20400 nM (inactive)
same,GI50,SF-295,26300 nM (inactive)
same,GI50,SF-539,21700 nM (inactive)
same,GI50,SK-MEL-28,19900 nM (inactive)
same,GI50,SK-MEL-2,22000 nM (inactive)
same,GI50,SK-MEL-5,15500 nM (inactive)
same,GI50,SK-OV-3,21900 nM (inactive)
same,GI50,SN12C,17500 nM (inactive)
same,GI50,SNB-19,26500 nM (inactive)
same,GI50,SNB-75,18100 nM (inactive)
same,GI50,SNB-78,23200 nM (inactive)
same,GI50,SR,12300 nM (inactive)
same,GI50,SW-620,16800 nM (inactive)
same,GI50,TK-10,27300 nM (inactive)
same,GI50,UACC-257,22600 nM (inactive)
same,GI50,UACC-62,14700 nM (inactive)
same,GI50,UO-31,18700 nM (inactive)
same,GI50,XF498,18000 nM (inactive)
CCN(CCCl)CCCCCNc1c2ccccc2nc2ccc(OC)cc12,GI50,786-0,345 nM (active)
same,GI50,A498,1260 nM (inactive)
same,GI50,A549,373 nM (active)
same,GI50,ACHN,470 nM (active)
same,GI50,CAKI-1,2840 nM (inactive)
same,GI50,CCRF-CEM,85.7 nM (active)
same,GI50,COLO 205,1100 nM (active)
same,GI50,DLD-1,350 nM (active)
same,GI50,DMS-114,334 nM (active)
same,GI50,DMS-273,184 nM (active)
same,GI50,EKVX,3790 nM (inactive)
same,GI50,HCC 2998,1040 nM (active)
same,GI50,HCT-116,221 nM (active)
same,GI50,HCT-15,1300 nM
same,GI50,HL-60,41.1 nM (active)
same,GI50,HOP-62,2140 nM (inactive)
same,GI50,HOP-92,436 nM (active)
same,GI50,HT-29,259 nM (active)
same,GI50,IGROV-1,578 nM (active)
same,GI50,K562,149 nM (active)
same,GI50,KM-20L2,655 nM (active)
same,GI50,KM12,454 nM (active)
same,GI50,LOX IMVI,178 nM (active)
same,GI50,LXFL 529,444 nM (active)
same,GI50,M14,2150 nM (inactive)
same,GI50,M19-MEL,476 nM (active)
same,GI50,MOLT-4,15.5 nM (active)
same,GI50,Malme-3M,2040 nM (inactive)
same,GI50,NCI-H226,321 nM (active)
same,GI50,NCI-H23,356 nM (active)
same,GI50,NCI-H460,70 nM (active)
same,GI50,NCI-H522,628 nM (active)
same,GI50,OVCAR-3,1830 nM (inactive)
same,GI50,OVCAR-4,1010 nM (active)
same,GI50,OVCAR-5,1550 nM (inactive)
same,GI50,OVCAR-8,533 nM (active)
same,GI50,RPMI-8226,115 nM (active)
same,GI50,RXF 393,1070 nM (active)
same,GI50,SF-268,597 nM (active)
same,GI50,SF-295,1470 nM (inactive)
same,GI50,SF-539,1040 nM (active)
same,GI50,SK-MEL-28,2720 nM (inactive)
same,GI50,SK-MEL-2,1090 nM (active)
same,GI50,SK-MEL-5,1100 nM (active)
same,GI50,SK-OV-3,1470 nM (inactive)
same,GI50,SN12C,232 nM (active)
same,GI50,SNB-19,1160 nM (inactive)
same,GI50,SNB-75,942 nM (active)
same,GI50,SNB-78,736 nM (active)
same,GI50,SW-620,154 nM (active)
same,GI50,TK-10,7660 nM (inactive)
same,GI50,U-251,603 nM (active)
same,GI50,UACC-257,3220 nM (inactive)
same,GI50,UACC-62,402 nM (active)
same,GI50,UO-31,2880 nM (inactive)
same,GI50,XF498,251 nM (active)
